From US5908781A, “Monoclonal antibodies to ceftiofur” (The United States of America as represented by the …, priority 1996, dated 1999) come the findings set out here.

One experiment addresses Cef-68. The experiment is described as follows: Competitive indirect ELISA (ciELISA), competitor inhibition of MAb Cef-68 binding. Further details: species or system Balb/c mice. The note with it: for IC50 (ppb) Values for Antibodies, Cef-68: MAb Cef-68, final dilution 1:20, BSA-S-GMBS-Cef-coated plates, value ± standard deviation, average of 3-6 determinations; for binding with MAb Cef-68 (in words): ciELISA cross-reactivity. As to the method:
(§1) The supernatant culture fluid from the cloned hybridomas may also be screened to select for those producing antibodies having a high affinity for ceftiofur. Affinity may be measured using a variety of well known techniques, such as ELISA, RIA or equilibrium dialysis using labeled ceftiofur. […] In accordance with this embodiment, the antibody containing supernatant is added to a ceftiofur or ceftiofur-complex coated substrate such as the wells of a microtiter plate, together with a range of concentrations of free ceftiofur as a competitor. Following incubation and washing, bound antibody in the wells is determined in the same manner as the db-ELISA. Percent inhibition may be calculated as (1-B/Bo)×100, where B is the optical density (OD) of a well with a competitor and Bo is the mean OD of the wells without competitor (control). […] However, for greater accuracy, the affinity may be alternatively measured at 50% inhibition (IC50).
(§2) Antibodies and ELISA Methods. A standard indirect ELISA method in which the hapten conjugate is immobilized on 96-well microtiter plates was used to evaluate the response of Balb/c mice towards the immunogen KLH-SMCC-desCef. The microtiter immunoplates (PGC Scientifics, Gaithersburg, Md.) were washed three times with a solution of 0.05% (v/v) polyoxyethylene sorbitan monolaurate (TWEEN 20)(Sigma Chemical Co., St. Louis, Mo.) in deionized water (TWEEN 20-water) and then coated with 100 μL of the coating antigen, BSA-SMCC-desCef (100 ng/well) in deionized water. The plates were dried overnight at 37° C. The plates were then washed three times with PBS-9 (0.01M sodium phosphate, 0.15M sodium chloride, pH 9) and the unbound active sites were blocked with 200 μL of 3% (w/v) nonfat milk in PBS-9 for 30 min at 37° C. The plates were washed three times with PBS-9, and 100 μL of supernatant containing the antibody was added to the microtiter plates, which were subsequently incubated for 60 min at 37° C. The unbound antibody was removed by washing the plate five times with TWEEN 20-water. Next, 50 μL of goat anti-mouse IgG-peroxidase conjugate (1:500 dilution)(Sigma Chemical Co., St. Louis, Mo.) was added, followed by incubation of the plates at 37° C. for 60 min. Finally, the plates were washed five times with TWEEN 20-water, 100 μL of K-blue substrate (Elisa Technologies, Lexington, Ky.) was added, and the absorbance was read at 655 nm.
(§3) For the ciELISA, the plates were prepared as above except that BSA-S-GMBS-Cef was used as the plate-coating antigen. Competitors were prepared in assay buffer (0.1M Tris, 0.15M sodium chloride, 0.01% (w/v) nonfat milk in deionized water, pH 7.75), added to the wells, and diluted in a 2-fold fashion immediately prior to addition of the anticeftiofur monoclonal antibody (Mab). Tissue culture media containing the anticeftiofur MAbs were used at a final dilution of 1:20 and 1:100 (for MAbs Cef-68 and Cef-116, respectively). The following competitors were used in a cross-reactivity study: ceftiofur sodium, cefteram sodium (Hoffmann-La Roche Inc., Nutley, N.J.), ceftriaxone sodium (Hoffmann-La Roche), cefuroxime sodium (Glaxo Man. Serv. Ltd., Barnard Castle, County Durham, England), ceftazidime pentahydrate (Glaxo), amoxicillin, ampicillin sodium, cefaclor, cefadroxil, cefamandole sodium, cefazolin sodium, cefoperazone sodium, cefotaxime sodium, cefoxitin sodium, cefsulodin sodium, cephalothin sodium, cephapirin sodium, cephradine, cloxacillin sodium, and penicillin-G sodium. Except where indicated otherwise, competitors were obtained from Sigma Chemical Co. (St. Louis, Mo.). The competitors were diluted to afford a solution containing a concentration range of 100-1000 ng/well in column 2 of the 96-well microtiter plates. Each competitor was serially diluted across the plate with columns 11 and 12 serving as controls (i.e. no competitor).
(In general: An ELISA detects its analyte on a solid surface through an enzyme-linked reagent.)

For the next experiment, the target named is Cef-116. The experiment is described as follows: Competitive indirect ELISA (ciELISA), competitor inhibition of MAb Cef-116 binding. The note with it: for IC50 (ppb) Values for Antibodies, Cef-116: MAb Cef-116, final dilution 1:100, BSA-S-GMBS-Cef-coated plates, value ± standard deviation, average of 3-6 determinations; for fold reduction of binding: MAb Cef-116, printed "as compared to MAb Cef-68"; for IC50 compared to ceftiofur, MAb Cef-116 (in words): ciELISA cross-reactivity. Set-up: species or system Balb/c mice. The procedure: as §1, §2, §3

As for `CO/N=C(\C(=O)N[C@@H]1C(=O)N2C(C(=O)O)=C(Cn3nnc(C)n3)CS[C@H]12)c1csc(N)n1` [Cefteram, cefteram], on Cef-68, the “IC50 (ppb) Values for Antibodies, Cef-68” value worked out at 200.00 ± 10.00 ppb and the “binding with MAb Cef-68 (in words)” value is “observed to bind”. For the same compound, on Cef-116, the “IC50 (ppb) Values for Antibodies, Cef-116” value (shortened to “IC50 (ppb) Values … Cef-116”) is reported as 3.57 ± 0.75 ppb and the “fold reduction of binding” value is given as 10 fold.

`CO/N=C(\C(=O)N[C@@H]1C(=O)N2C(C(=O)O)=C(COC(N)=O)CS[C@H]12)c1ccco1` [Cefuroxime, cefuroxime]: at Cef-116, the “IC50 (ppb) Values … Cef-116” value was found to be 406.67 ± 130.13 ppb and the “fold reduction of binding” value is listed as 100 fold.

In the case of `CO/N=C(\C(=O)N[C@@H]1C(=O)N2C(C(=O)O)=C(COC(C)=O)CS[C@H]12)c1csc(N)n1` [Cefotaxime, cefotaxime], at Cef-68, the “IC50 (ppb) Values for Antibodies, Cef-68” value was determined as 79.67 ± 0.58 ppb and the “binding with MAb Cef-68 (in words)” value is “observed to bind”. Further, at Cef-116, the “IC50 (ppb) Values … Cef-116” value came out at 0.48 ± 0.05 ppb and the “IC50 compared to ceftiofur, MAb Cef-116 (in words)” value is on record as “IC50 values comparable to those observed with ceftiofur”.

Consider `CO/N=C(\C(=O)N[C@@H]1C(=O)N2C(C(=O)O)=C(CSC(=O)c3ccco3)CS[C@H]12)c1csc(N)n1` [Ceftiofur, ceftiofur], for which the “IC50 (ppb) Values for Antibodies, Cef-68” value at Cef-68 was determined as 32.33 ± 0.58 ppb. Further, the “IC50 (ppb) Values … Cef-116” value on Cef-116 is reported as 0.33 ± 0.05 ppb.

For `CO/N=C(\C(=O)N[C@@H]1C(=O)N2C(C(=O)O)=C(CSc3nc(=O)c(=O)[nH]n3C)CS[C@H]12)c1csc(N)n1` [Ceftriaxone, ceftriaxone], at Cef-68, the “IC50 (ppb) Values for Antibodies, Cef-68” value was determined as 38.67 ± 8.62 ppb and the “binding with MAb Cef-68 (in words)” value was “observed to bind”. Besides, on Cef-116, the “IC50 (ppb) Values … Cef-116” value is 0.33 ± 0.05 ppb and the “IC50 compared to ceftiofur, MAb Cef-116 (in words)” value is recorded as “IC50 values comparable to those observed with ceftiofur”.
